Measurements from PMC5952519, “Screening a repurposing library, the Medicines for Malaria Venture Stasis Box, against Schistosoma mansoni” (Parasites & Vectors, 2018).
pIC50: −log10 of the molar value. “Also recorded” adds a separate entry of the source. Where two headings read alike, the source gives them in different places.

Legend:
[1] = tested on: newly transformed schistosomula (NTS) of Schistosoma mansoni; experiment: In vitro assay on newly transformed schistosomula (NTS), viability scoring by microscopy; assay type: cell-based
Text: (§1) The S. mansoni (Liberian strain) life-cycle, is maintained in-house at the Swiss Tropical and Public Health Institute (Swiss TPH), as described before. Biomphalaria glabrata were infected with 6 to 8 S. mansoni miracidia. They were kept in pond water under natural light, temperature and humidity conditions until the infectious stage, the cercariae, started to shed. The cercariae were mechanically transformed to schistosomula, the NTS, using a procedure adapted from Milligan & Jolly. NTS were incubated (37 °C, 5% CO2) until use for 12 to maximum 24 h in M199 medium supplemented with FCS and antibiotics. Adult S. mansoni of both sexes were collected by dissecting the intestinal veins of mice euthanized 7 weeks post-infection. All the adult worms recovered were incubated for maximum one week until use in RPMI medium supplemented with FCS and penicillin-streptomycin.
For in vitro screening on NTS, the parasite suspension was adjusted to 50 NTS/100 μl in supplemented M199 medium and added to the drug dilutions in 96-wells plates (Eppendorf AG, Hamburg, Germany). NTS were initially exposed to a drug concentration of 10 μM (0.1% DMSO). Each drug was tested in duplicate.
Hit compounds identified on NTS progressed into testing on adult worms. Females, males and pairs (3 to 5 worms per well) were exposed to the drug dilution in supplemented RPMI medium. The assays were performed in duplicate in 24-wells plates (Eppendorf AG, Hamburg, Germany). […] Each assay on NTS was performed in triplicate with serial drug dilutions (1:2, range: 10–0.16 μM) and repeated once. […] Each IC50 assay was repeated once. These assays were repeated for the lead compounds in presence of albumin (BSA) at the human physiological concentration of 45 g/l (AlbuMAX II, Gibco). For all in vitro assays (NTS and adults), negative controls containing the highest concentration of DMSO were included. Worms incubated with praziquantel served as positive controls. The parasites were evaluated under an inverted optical microscope over 3 days after drug exposure. Their movement and morphology were assessed and scored as described previously.
(§2) For in vitro assays, the average viability scores between replicates (or individual adult worms) were normalised to the controls and converted into percentage activity (or effect). Drug IC50 values (for NTS or adult worms) were calculated by computing different dose-effect values using CompuSyn2 software (ComboSyn Inc., 2007). The linear correlation coefficient (r) reflects the experimental fit. In this study, r-values > 0.70 were considered acceptable. […] The selectivity index (SI) of each drug was calculated by dividing the CC50 measured on the L6 cells by the IC50 measured on the parasites. For in vivo studies, as previously described, the worm burden reduction [%] was determined by comparing the worm burden of treated and untreated mice. For statistical significance a Kruskal-Wallis test was employed (R version 3.2.2).

[2] = tested on: adult S. mansoni; experiment: In vitro assay on adult S. mansoni worms, viability scoring by microscopy; assay type: cell-based; conditions: Schistosoma mansoni, read-out: Adult IC50
Text: as §1
(§3) Hit compounds identified on NTS progressed into testing on adult worms. Females, males and pairs (3 to 5 worms per well) were exposed to the drug dilution in supplemented RPMI medium. The assays were performed in duplicate in 24-wells plates (Eppendorf AG, Hamburg, Germany). […] Each IC50 assay was repeated once. These assays were repeated for the lead compounds in presence of albumin (BSA) at the human physiological concentration of 45 g/l (AlbuMAX II, Gibco). For all in vitro assays (NTS and adults), negative controls containing the highest concentration of DMSO were included. Worms incubated with praziquantel served as positive controls. The parasites were evaluated under an inverted optical microscope over 3 days after drug exposure. Their movement and morphology were assessed and scored as described previously.
as §2, with “Drug IC50 values (for NTS or adult worms) were calculated by computing different dose-effect values using CompuSyn2 software (ComboSyn Inc., 2007).” left out

[3] = Cytotoxicity assay on L6 cells (resazurin / Alamar Blue); assay type: cell-based; conditions: rat
Experimental: Rat skeletal myoblast L6 cells (2 × 10^4 cells/ml) were exposed to serial dilutions of the 11 lead compounds (1:3, range: 0.37–90 μM). Podophyllotoxin (PPT, 1:3, range: 2 × 10^-4 –0.05 μg/ml) was used as a positive control. After a 72-hour incubation, resazurin dye (Alamar Blue) was added to the plates. […] Each drug was tested in duplicate and each assay was repeated once.
as §2

[4] = tested on: MRC5 cells; conditions: read-out: MRC5 cells CC50; ref provided by MMV; cited from earlier work
[5] = tested on: adult S. mansoni; experiment: In vitro assay on adult S. mansoni worms in albumin-enriched medium (45 g/l); assay type: cell-based; conditions: Schistosoma mansoni, read-out: Adult IC50 with albumin
Experimental: as §3
as §2, with “Drug IC50 values (for NTS or adult worms) were calculated by computing different dose-effect values using CompuSyn2 software (ComboSyn Inc., 2007).” left out

[6] = tested on: S. mansoni; experiment: In vivo efficacy in mice harbouring a chronic S. mansoni infection (worm burden); design: species or system Schistosoma mansoni; conditions: for inhibition in vivo at 200 mg/kg: Schistosoma mansoni
Experimental: (§4) Three weeks old NMRI female mice were used (Charles Rivers, Germany) for in vivo drug efficacy studies. The animals were kept in groups of ten with constant access to food and water. After one week of habituation, mice were sub-cutaneously injected a suspension containing 100 S. mansoni cercariae in phosphate-buffered saline (PBS). The drugs (200 mg/kg single dose) were administered seven weeks post-infection by oral gavage to groups of 4 mice. They were dissolved in tap water with Tween80/ethanol (10%, 70:30). Untreated mice (n = 10) served as control and were dissected 7 weeks post-infection. Treated mice (n = 40) were euthanized with CO2 and dissected between 16 to 18 days post-drug administration. The worms were then collected, sexed and counted.
as §2

[7] = Survival of treated infected mice in the in vivo study; conditions: single 200 mg/kg oral dose
Experimental: as §4
Eight compounds had no effect on the worm burden in infected mice (worm burden reduction < 36%).

[8] = Schistosoma mansoni, 24 h; read-out: NTS IC50
[9] = Schistosoma mansoni, 48 h; read-out: NTS IC50
[10] = 72-hour incubation, read-out: L6 cells CC50
[11] = mice, single 200 mg/kg oral dose, 49-day-old adult infection, read-out: WBR (worm burden reduction)
[12] = mice, single 200 mg/kg oral dose, 49-day-old adult infection
[13] = po, read-out: WBR (worm burden reduction), mice, single 200 mg/kg oral dose, 49-day-old adult infection

SMILES | pIC50 [1, 8] | pIC50 [1, 9] | pIC50 ([2]; 24 h, standard medium) | pIC50 ([2]; 48 h, standard medium) | CC50 at 72 h [3, 10] | CC50 [4] | pIC50 ([5]; 24 h, albumin 45 g/l) | pIC50 ([5]; 72 h, albumin 45 g/l) | CC50 at 72 h [3] | inhibition in vivo at 200 mg/kg [6, 11] | Mean worm burden ± SD [6, 12] | pIC50 ([5]; 48 h, albumin 45 g/l) | further results
Nc1nc2ccc(Cl)cc2c2nc(-c3ccco3)nn12 [MMV001539] | 4.90 | 4.96 | 4.55 | 4.91 | 2.9 µM | 16000 nM |  |  |  |  |  |  | 
COc1ccc(NC(=O)c2ccc(-c3ccc(-c4noc(C)n4)cc3C)cc2)cc1N1CCN(C)CC1 [MMV003452] | 5.36 | 5.66 | 5.77 | 5.52 |  | 1900 nM | 4.65 | 5.12 | 3.7 µM | 12.2% | 40.5 ± 17.2 |  | 
O=C(O)Cc1cccc(OCCCN(Cc2cccc(C(F)(F)F)c2Cl)CC(c2ccccc2)c2ccccc2)c1 [MMV690466] | 4.84 | 5.42 | 5.54 | 5.64 | 1.6 µM | 8400 nM | 4.74 | 4.32 |  | 35.9% | 10.3 ± 6.9 | 4.05 | effect on NTS at 10 μM ([1]; 10 μM, 48 h): high effect; also recorded: high activity
Fc1ccc(Cl)cc1-c1nc(Nc2ccncc2)c2nccnc2n1 [MMV690534] |  |  |  |  |  | 12400 nM |  |  |  |  | 7.8 ± 7.5 |  | pIC50 ([1]; Schistosoma mansoni, 24 h, read-out: NTS IC50): 4.93; pIC50 ([1]; Schistosoma mansoni, 48 h, read-out: NTS IC50): 4.84; pIC50 ([2]; 24 h): 4.76; pIC50 ([2]; 48 h): 4.71; CC50 at 72 h ([3]; L6 skeletal myoblast cells, 72-hour incubation, read-out: L6 cells CC50): 74.5 µM; inhibition in vivo at 200 mg/kg [6, 13]: > 50%
CC(C)(Cc1c[nH]c2ccc(Cl)cc12)NCCOc1ccccc1OCC1CC1 [MMV690599] | 4.98 | 5.46 |  |  | 3.4 µM | 2000 nM |  |  |  |  | 44.7 ± 29.6 |  | pIC50 ([2]; 48 h): 5.48; pIC50 ([5]; 24 h): 4.63; pIC50 ([5]; 48 h): 4.72; pIC50 ([5]; 72 h): 4.80; inhibition in vivo at 200 mg/kg [6, 13]: 3.2%
Cc1ccc(C(=O)N(CCCN)[C@@H](c2nc3cc(Cl)ccc3c(=O)n2Cc2ccccc2)C(C)C)cc1 [MMV690646, Ispinesib] | 5.52 | 5.96 | 5.43 |  |  | 200 nM | 4.49 | 4.47 |  |  |  | 3.91 | death of treated mice [7]: died prematurely; also recorded: death of the mice
CC#CC(=O)Nc1ccc2ncnc(Nc3cccc(Br)c3)c2c1 [MMV690684] | 5.40 | 5.51 | 5.31 | 5.33 |  | 7000 nM | 4.11 | 5.11 | 7 µM | 10% | 41.5 ± 16.5 | 4.84 | 
CNCc1ccc(C)c(NC(=O)c2ccc(Nc3nc(-c4ccccc4)c4ccccc4n3)cc2)c1 [MMV690732] | 4.53 | 5.20 | 5.31 | 5.54 |  | 1900 nM | 4.20 | 4.27 | 2.3 µM | 0% | 47.5 ± 24.3 | 3.74 | 
CCOc1cc2ncc(C#N)c(Nc3ccc(F)c(Cl)c3)c2cc1NC(=O)/C=C/CN(C)C [MMV690765, Pelitinib] | 3.04 | < 6.00 | 5.38 | 5.47 |  | 700 nM | 3.19 | 3.91 | 11.8 µM | 0% | 84.0 ± 56.4 | 3.65 | 
CC[C@@H]1C(=O)N(C)c2cnc(Nc3ccc(C(=O)NC4CCN(C)CC4)cc3OC)nc2N1C1CCCC1 [MMV690787] |  |  |  |  |  | 100 nM |  |  |  | 0% | 48.3 ± 21.6 |  | 
